Key:
[1] = recombinant barcode read abundance after kanamycin selection (control-corrected) (log10(CPM+1)); higher = more efficient recombination; sequences stand for … in AGTGCAGAGAAAATCGGCCAGTTTTCTCTGCCTGCAGTCCGCATGCCGT…AGATTTATGCAGCGGACTGCCTTTCTCCCAAAGTGATAAACCGGACAGTATCATGGACCGGTTTTCCCGGTAATCCGTATTTGCAAGGTTGGTTTCACT; site = the 11-nt target
Method: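 Pooled E. coli target-specificity screen for the IS621 bridge recombinase. Each library plasmid pairs an 11-nt target (CT core) with a bridge RNA whose target-binding loop (9-nt LTG + 4-nt RTG) is reprogrammed; the rest of the 177-nt WT IS621 bridge RNA scaffold is fixed. The plasmid is co-electroporated with a WT donor plasmid; recombinase is induced with 0.1 mM IPTG and recombinants are selected on kanamycin. Recombinant barcodes are sequenced, converted to CPM, averaged over two biological replicates and corrected by the unselected control CPM. Molecule = full bridge RNA written as DNA: LTG = specificity nt 1-9, RTG = reverse complement of specificity nt 8-11, in the WT scaffold.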

[2] = recombinant UMI read abundance after kanamycin selection (control-corrected) (log10(CPM+1)); higher = more efficient recombination; extreme values may be limits of the assay; sequences stand for … in AGTGCAGAGAAAATCGGCCAGTTTTCTCTGCCTGCAGTCCGCATGCCGTGGGACCCCTTGGGTTCTAACCTGTTGCCTAGATTTATGCAGCGGACTGCCTTTCTCCCAAAGTGATAAACCGG…AGGTTGGTTTCACT; site = the 11-nt donor
Method in brief: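 Counts of recombinant UMIs were reported as log10(CPM+1). Before that, they were converted to CPM, averaged over replicates and scaled using control-derived factors. They came from PCR across the donor–target junction after Escherichia coli carrying the pair library and target plasmid was plated on IPTG (0.07 mM) plus kanamycin, or unselected, in two replicates each.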
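Wherever recombinant UMI read abundance after kanamycin selection (control-corrected) is given: IS621 bridge recombinase in Escherichia coli cells against a fixed T5 target plasmid.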
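Wherever recombinant barcode read abundance after kanamycin selection (control-corrected) is given: IS621 recombinase and bridge RNA in Escherichia coli cells.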

Row | Sequence | recombinant barcode read abundance (log10) [1] | recombinant UMI read abundance (log10) [2]
1 | AAACCGCCTTGGGTTCTAACCTGTTGCCT (site AAACCGCCTAG) | 1.11 | –
2 | AAACCGCCTTGGGTTCTAACCTGTTGCCT (site AAACGGCCTAG) | 0.163 | –
3 | AAACGGCCTTGGGTTCTAACCTGTTGCCT (site AAACCGCCTAG) | 0.147 | –
4 | AAACGGCCTTGGGTTCTAACCTGTTGCCT (site AAACGGCCTAG) | 0.522 | –
5 | AAACGGTCTTGGGTTCTAACCTGTTGCTA (site AAACGGTCTTA) | 1.53 | –
6 | AAACGGTCTTGGGTTCTAACCTGTTGCTA (site AAATGGTCTTA) | 0.131 | –
7 | AAAGCTACTTGGGTTCTAACCTGTTGCCT (site AAAGCTACTAG) | 1.11 | –
8 | AAAGCTACTTGGGTTCTAACCTGTTGCCT (site AAAGCTCCTAA) | 0.124 | –
9 | AAAGGGGCTTGGGTTCTAACCTGTTGCCT (site AAAGGGGCTAG) | 2.2 | –
10 | AAAGGGGCTTGGGTTCTAACCTGTTGCCT (site TTGCATTCTCA) | 0.155 | –
11 | AAAGGGTCTTGGGTTCTAACCTGTTGCCT (site AAAGGGTCTAG) | 1.8 | –
12 | AAAGGGTCTTGGGTTCTAACCTGTTGCCT (site ACAGGGTCTAG) | 0.327 | –
13 | AAAGGGTCTTGGGTTCTAACCTGTTGCCT (site AGAGGGTCTAG) | 0.0828 | –
14 | AAAGGGTCTTGGGTTCTAACCTGTTGCCT (site ATAGGGTCTAG) | 0.689 | –
15 | AAAGGTCCTTGGGTTCTAACCTGTTGCAG (site AAAGGTCCTCT) | 2.69 | –
16 | AAAGGTCCTTGGGTTCTAACCTGTTGCAG (site CTTTAGTCTTA) | 0.0927 | –
17 | AAAGGTTCTTGGGTTCTAACCTGTTGCCT (site AAAGGTTCTAG) | 1.58 | –
18 | AAAGGTTCTTGGGTTCTAACCTGTTGCCT (site ACAGGTTCTAG) | 0.0935 | –
19 | AAAGGTTCTTGGGTTCTAACCTGTTGCCT (site AGAGGTTCTAG) | 0.0624 | –
20 | AAAGGTTCTTGGGTTCTAACCTGTTGCCT (site ATAGGTTCTAG) | 0.126 | –
21 | AAAGTACCTTGGGTTCTAACCTGTTGCCT (site AAAGTACCTAG) | 2 | –
22 | AAAGTACCTTGGGTTCTAACCTGTTGCCT (site CAAGTACCTAG) | 0.741 | –
23 | AAAGTACCTTGGGTTCTAACCTGTTGCCT (site GAAGTACCTAG) | 0.0449 | –
24 | AAAGTACCTTGGGTTCTAACCTGTTGCCT (site TAAGTACCTAG) | 1.16 | –
25 | AAAGTCCCTTGGGTTCTAACCTGTTGCCT (site AAAGTCCCTAG) | 1.03 | –

Row | Sequence | recombinant barcode read abundance (log10) [1] | recombinant UMI read abundance (log10) [2]
26 | AAAGTCCCTTGGGTTCTAACCTGTTGCCT (site CAAGTCCCTAG) | 0.361 | –
27 | AAAGTCCCTTGGGTTCTAACCTGTTGCCT (site GAAGTCCCTAG) | 0.218 | –
28 | AAAGTCCCTTGGGTTCTAACCTGTTGCCT (site TAAGTCCCTAG) | 0.481 | –
29 | AAATGGTCTTGGGTTCTAACCTGTTGCTA (site AAACGGTCTTA) | 0.814 | –
30 | AAATGGTCTTGGGTTCTAACCTGTTGCTA (site AAATGGTCTTA) | 1.69 | –
31 | AAATGTACTTGGGTTCTAACCTGTTGCCT (site AAATGTACTAG) | 1.04 | –
32 | AAATGTACTTGGGTTCTAACCTGTTGCCT (site TGGGTCCCTTC) | 0.0555 | –
33 | AACAATGCTTGGGTTCTAACCTGTTGCCT (site AACAATGCTAG) | 0.713 | –
34 | AACAATGCTTGGGTTCTAACCTGTTGCCT (site AACACTGCTAG) | 0.33 | –
35 | AACAATGCTTGGGTTCTAACCTGTTGCCT (site AACAGTGCTAG) | 0.207 | –
36 | AACAATGCTTGGGTTCTAACCTGTTGCCT (site AACATTGCTAG) | 0.0444 | –
37 | AACAGACCTTGGGTTCTAACCTGTTGCCT (site AACAGACCTAG) | 1.62 | –
38 | AACAGACCTTGGGTTCTAACCTGTTGCCT (site CACAGACCTAG) | 0.116 | –
39 | AACAGACCTTGGGTTCTAACCTGTTGCCT (site GACAGACCTAG) | 0.291 | –
40 | AACAGACCTTGGGTTCTAACCTGTTGCCT (site TACAGACCTAG) | 0.686 | –
41 | AACAGGGCTTGGGTTCTAACCTGTTGCCG (site AACAGGGCTCG) | 1.22 | –
42 | AACAGGGCTTGGGTTCTAACCTGTTGCCG (site TGGCATCCTAC) | 0.0251 | –
43 | AACAGGTCTTGGGTTCTAACCTGTTGCCT (site AACAGGTCTAG) | 0.902 | –
44 | AACAGGTCTTGGGTTCTAACCTGTTGCCT (site ACCAGGTCTAG) | 0.175 | –
45 | AACAGGTCTTGGGTTCTAACCTGTTGCCT (site AGCAGGTCTAG) | 0.0529 | –
46 | AACAGGTCTTGGGTTCTAACCTGTTGCCT (site ATCAGGTCTAG) | 0.0485 | –
47 | AACATTCCTTGGGTTCTAACCTGTTGCCT (site AACATTCCTAG) | 0.151 | –
48 | AACATTCCTTGGGTTCTAACCTGTTGCCT (site CACATTCCTAG) | 0 | –
49 | AACATTCCTTGGGTTCTAACCTGTTGCCT (site GACATTCCTAG) | 0.355 | –
50 | AACATTCCTTGGGTTCTAACCTGTTGCCT (site TACATTCCTAG) | 0.0261 | –

Row | Sequence | recombinant barcode read abundance (log10) [1] | recombinant UMI read abundance (log10) [2]
51 | AACATTGCTTGGGTTCTAACCTGTTGCCT (site AACAATGCTAG) | 0.765 | –
52 | AACATTGCTTGGGTTCTAACCTGTTGCCT (site AACACTGCTAG) | 0.695 | –
53 | AACATTGCTTGGGTTCTAACCTGTTGCCT (site AACAGTGCTAG) | 0.372 | –
54 | AACATTGCTTGGGTTCTAACCTGTTGCCT (site AACATTGCTAG) | 0.979 | –
55 | AACCATCCTTGGGTTCTAACCTGTTGCCT (site AACCAGCCTAG) | 0.0589 | –
56 | AACCATCCTTGGGTTCTAACCTGTTGCCT (site AACCATCCTAG) | 1.51 | –
57 | TTTGCGGCATGGACCGGTTTTCCCGGTAATCCGTATTTGCT (site TTTGCGGCTAG) | – | 0.75
58 | TTTGCGGCATGGACCGGTTTTCCCGGTAATCCGTATTTGCT (site TTTGCGGCTAT) | – | 0.0119
59 | TTTGCGGCATGGACCGGTTTTCCCGGTAATCCGTATTTGCT (site TTTGCGGCTCG) | – | 0.0133
60 | TTTGCGGCATGGACCGGTTTTCCCGGTAATCCGTATTTGCT (site TTTGCGGCTGG) | – | 0
61 | TTTGCGGCATGGACCGGTTTTCCCGGTAATCCGTATTTGCT (site TTTGCGGCTTG) | – | 0.00988
62 | TTTGCGGCATGGACCGGTTTTCCCGGTAATCCGTATTTGCT (site TTTGCGTCTAG) | – | 0.00651
63 | TTTGCGGCATGGACCGGTTTTCCCGGTAATCCGTATTTGCT (site TTTGCTGCTAG) | – | 0
64 | TTTGCGGCATGGACCGGTTTTCCCGGTAATCCGTATTTGCT (site TTTGGGGCTAG) | – | 0.00746
65 | TTTGCGGCATGGACCGGTTTTCCCGGTAATCCGTATTTGCT (site TTTGTGGCTAG) | – | 0.00957
66 | TTTGCGGCATGGACCGGTTTTCCCGGTAATCCGTATTTGCT (site TTTTCGGCTAG) | – | 0.00374
67 | TTTGGCACATGGACCGGTTTTCCCGGTAATCCGTATTTGGC (site TTTGGCACTGC) | – | 0.00668
68 | TTTGGGGCATGGACCGGTTTTCCCGGTAATCCGTATTTGCT (site TTTGAGGCTAG) | – | 0.621
69 | TTTGGGGCATGGACCGGTTTTCCCGGTAATCCGTATTTGCT (site TTTGCGGCTAG) | – | 0.00428
70 | TTTGGGGCATGGACCGGTTTTCCCGGTAATCCGTATTTGCT (site TTTGGGGCTAG) | – | 1.61
71 | TTTGGGGCATGGACCGGTTTTCCCGGTAATCCGTATTTGCT (site TTTGTGGCTAG) | – | 0.0107
72 | TTTGTAGCATGGACCGGTTTTCCCGGTAATCCGTATTTGGA (site TTTGTAGCTTC) | – | 0.00646
73 | TTTGTGTCATGGACCGGTTTTCCCGGTAATCCGTATTTGCG (site TTTGTGTCTCG) | – | 0.535
74 | TTTGTTTCATGGACCGGTTTTCCCGGTAATCCGTATTTGTT (site TTTGTTTCTAA) | – | 0
